What was measured:
M4 muscarinic receptor = molecular target: T1, M4 muscarinic receptor (Homo sapiens, UniProt P08173); experiment: Functional mobilization of intracellular calcium (FLIPR) in M4-CHO cells; type: cell-based; conditions: M4 receptor, calcium mobilization; for Emax: read-out: M4 Efficacy
T1 construct: expressed in transfected cells; host or cells: CHO (M4-CHO)
T1 sequence (P08173 1-479): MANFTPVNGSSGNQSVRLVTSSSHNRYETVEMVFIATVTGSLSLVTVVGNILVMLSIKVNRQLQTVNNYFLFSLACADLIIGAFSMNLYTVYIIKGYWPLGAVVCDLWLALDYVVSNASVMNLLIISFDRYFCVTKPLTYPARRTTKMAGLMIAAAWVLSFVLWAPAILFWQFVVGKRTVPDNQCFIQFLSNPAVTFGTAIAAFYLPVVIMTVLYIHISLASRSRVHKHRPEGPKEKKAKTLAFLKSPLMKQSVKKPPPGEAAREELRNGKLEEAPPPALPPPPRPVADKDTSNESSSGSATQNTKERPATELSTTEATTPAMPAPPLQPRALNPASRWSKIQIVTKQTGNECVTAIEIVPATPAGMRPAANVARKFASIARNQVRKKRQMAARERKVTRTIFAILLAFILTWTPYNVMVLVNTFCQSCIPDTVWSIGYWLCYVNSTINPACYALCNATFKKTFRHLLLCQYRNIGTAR
Method in brief: (§1)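 Steps: seed M1- or M4-CHO cells 18-24 hrs ahead; load calcium dye with 1 mM probenecid; add test compound (0.5% DMSO final), either alone for agonism or 15 min before EC80 carbachol for inhibition; record FLIPR fluorescence for 60 sec.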

M1 muscarinic receptor = molecular target: T2, M1 muscarinic receptor (Homo sapiens, UniProt P11229); experiment: Functional mobilization of intracellular calcium (FLIPR) in M1-CHO cells; type: cell-based; conditions: M1 receptor, calcium mobilization; for Emax: read-out: M1 Efficacy
T2 construct: expressed in transfected cells; host or cells: CHO (M1-CHO)
T2 sequence (P11229 1-460): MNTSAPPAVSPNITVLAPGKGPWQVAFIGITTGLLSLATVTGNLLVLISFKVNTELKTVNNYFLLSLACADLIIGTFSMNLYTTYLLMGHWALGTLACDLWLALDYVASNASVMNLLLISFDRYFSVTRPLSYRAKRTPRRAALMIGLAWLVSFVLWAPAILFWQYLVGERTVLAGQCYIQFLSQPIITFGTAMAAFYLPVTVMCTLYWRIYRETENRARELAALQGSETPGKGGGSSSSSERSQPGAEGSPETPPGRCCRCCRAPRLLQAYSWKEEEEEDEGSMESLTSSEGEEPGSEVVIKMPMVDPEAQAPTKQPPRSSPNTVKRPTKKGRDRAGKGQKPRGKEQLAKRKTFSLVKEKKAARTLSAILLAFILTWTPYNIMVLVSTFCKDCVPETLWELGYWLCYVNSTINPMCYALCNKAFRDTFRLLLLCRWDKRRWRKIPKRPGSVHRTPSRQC
Method in brief: as §1

Structure (SMILES) | M4 Activity (M4 muscarinic receptor) | Emax (M4 muscarinic receptor) [%] | M1 Activity (M1 muscarinic receptor) | Emax (M1 muscarinic receptor) [%] | M4 Efficacy (M4 muscarinic receptor) | M1 Efficacy (M1 muscarinic receptor)
CCOC(=O)N1CCC(CN2CCC3(CC2)C(=O)Nc2ccccc23)CC1 [compound 319] | x (activity was measured to be greater than 1.0 μM) | < 65 | xx (activity was measured to be between 0.1 μM and 1.0 μM) | < 65 |  | 
CC(C)OC(=O)N1C2CCC1CC(N1CCC3(CC1)COc1ccc(F)cc13)C2 (stereo not shown) [compound 320] | x (activity was measured to be greater than 1.0 μM) | < 65 | xx (activity was measured to be between 0.1 μM and 1.0 μM) | 65 to 85 |  | 
CCOC(=O)N1CCC(N2CCC3(CC2)CN(C(=O)c2ccno2)c2ccc(F)cc23)CC1 [compound 321] | x (activity was measured to be greater than 1.0 μM) | 65 to 85 | xx (activity was measured to be between 0.1 μM and 1.0 μM) | 65 to 85 |  | 
CCOC(=O)N1C2CCC1CC(N1CCC3(CC1)CN(C(C)=O)c1c(F)cccc13)C2 (stereo not shown) [compound 322] | xxx (activity was measured to be less than 0.1 μM) | > 85 | xx (activity was measured to be between 0.1 μM and 1.0 μM) | < 65 |  | 
CC(=O)N[C@@H]1CC2(CCN([C@@H]3C[C@H]4CC[C@@H]3C4)CC2)c2ccccc21 [compound 323] | x (activity was measured to be greater than 1.0 μM) | 65 to 85 | xx (activity was measured to be between 0.1 μM and 1.0 μM) | 65 to 85 |  | 
CCCC(=O)N1CC2(CCN(C3CCN(C(=O)OCC)CC3)CC2)c2cc(F)ccc21 [compound 324] | x (activity was measured to be greater than 1.0 μM) | 65 to 85 | xx (activity was measured to be between 0.1 μM and 1.0 μM) | 65 to 85 |  | 
Fc1ccc2c(c1)C1(CCN(C3CCCCC3)CC1)CN2 [compound 325] | x (activity was measured to be greater than 1.0 μM) | < 65 | x (activity was measured to be greater than 1.0 μM) | 65 to 85 |  | 
CCOC(=O)N[C@H]1CC2(CCN(C[C@H]3C[C@H]4CC[C@H]3C4)CC2)c2ccccc21 [compound 326] | x (activity was measured to be greater than 1.0 μM) | < 65 | x (activity was measured to be greater than 1.0 μM) | < 65 |  | 
CCOC(=O)N1CCC(CN2CCC3(CC2)C(=O)N(C)c2ccccc23)CC1 [compound 327] | x (activity was measured to be greater than 1.0 μM) | < 65 | x (activity was measured to be greater than 1.0 μM) | < 65 |  | 
CCCC1CCC(N2CCC3(CC2)CNc2ccc(F)cc23)CC1 (stereo not shown) [compound 328] | x (activity was measured to be greater than 1.0 μM) | 65 to 85 | xx (activity was measured to be between 0.1 μM and 1.0 μM) | < 65 |  | 
CCCOC(=O)N1C2CCC1CC(N1CCC3(CC1)CN(C(=O)OC1CCC1)c1ccc(F)cc13)C2 (stereo not shown) [compound 329] | x (activity was measured to be greater than 1.0 μM) | < 65 | xxx (activity was measured to be less than 0.1 μM) | 65 to 85 |  | 
CCOC(=O)N1CCC(N2CCC3(CC2)CN(C(=O)c2ccc(C)cc2)c2ccc(F)cc23)CC1 [compound 330] | x (activity was measured to be greater than 1.0 μM) | < 65 | x (activity was measured to be greater than 1.0 μM) | < 65 |  | 
CCOC(=O)N1CCC(N2CCC3(CC2)CN(C(=O)c2ccccn2)c2ccc(F)cc23)CC1 [compound 331] | x (activity was measured to be greater than 1.0 μM) | < 65 | xx (activity was measured to be between 0.1 μM and 1.0 μM) | < 65 |  | 
CCOC(=O)N1C2CCC1CC(CN1CCC3(CC1)CNc1ccc(C)cc13)C2 (stereo not shown) [compound 332] | x (activity was measured to be greater than 1.0 μM) | < 65 | x (activity was measured to be greater than 1.0 μM) | < 65 |  | 
Clc1ccc2c(c1)C1(CCN(C3CCCCCC3)CC1)CN2 [compound 333] | x (activity was measured to be greater than 1.0 μM) | < 65 | x (activity was measured to be greater than 1.0 μM) | < 65 |  | 
CCCC1CCC(N2CCC3(CC2)CNc2ccccc23)CC1 (stereo not shown) [compound 334] | x (activity was measured to be greater than 1.0 μM) | < 65 | x (activity was measured to be greater than 1.0 μM) | < 65 |  | 
CCOC(=O)N1CCC(N2CCC3(CC2)CN(C(=O)c2cc(C)oc2C)c2ccc(F)cc23)CC1 [compound 335] | x (activity was measured to be greater than 1.0 μM) | < 65 | x (activity was measured to be greater than 1.0 μM) | < 65 |  | 
O=C(O[C@@H]1CCOC1)N1C2CCC1CC(N1CCC3(CC1)C(=O)Nc1ccccc13)C2 (stereo partly shown) [compound 336] | x (activity was measured to be greater than 1.0 μM) | < 65 | x (activity was measured to be greater than 1.0 μM) | < 65 |  | 
CC(=O)N[C@H]1CC2(CCN(C3CC4CCC(C4)C3)CC2)c2ccccc21 (stereo partly shown) [compound 337] | x (activity was measured to be greater than 1.0 μM) | < 65 | x (activity was measured to be greater than 1.0 μM) | < 65 |  | 
O=C(O[C@@H]1CCOC1)N1C2CCC1CC(N1CCC3(CC1)COc1ccc(F)cc13)C2 (stereo partly shown) [compound 338] | x (activity was measured to be greater than 1.0 μM) | < 65 | x (activity was measured to be greater than 1.0 μM) | < 65 |  | 
CC(=O)N(C)[C@@H]1CC2(CCN(C[C@H]3C[C@H]4CC[C@H]3C4)CC2)c2ccccc21 [compound 339] | x (activity was measured to be greater than 1.0 μM) | < 65 | x (activity was measured to be greater than 1.0 μM) | < 65 |  | 
CCOC(=O)N1CCC(N2CCC3(CC2)CN(C(C)=O)c2ccc(OC)cc23)CC1 [compound 340] | x (activity was measured to be greater than 1.0 μM) | < 65 | xx (activity was measured to be between 0.1 μM and 1.0 μM) | < 65 |  | 
CCCC1CCC(N2CCC3(CC2)CNc2ccc(Cl)cc23)CC1 (stereo not shown) [compound 341] | x (activity was measured to be greater than 1.0 μM) | < 65 | x (activity was measured to be greater than 1.0 μM) | < 65 |  | 
c1ccc2c(c1)NCC21CCN(CC2CCCCC2)CC1 [compound 342] | xx (activity was measured to be between 0.1 μM and 1.0 μM) | 65 to 85 | xxx (activity was measured to be less than 0.1 μM) | 65 to 85 |  | 
CC(=O)N1CC2(CCN(C3CCCC3)CC2)c2cc(F)ccc21 [compound 343] | xxx (activity was measured to be less than 0.1 μM) | < 65 | xxx (activity was measured to be less than 0.1 μM) | 65 to 85 |  | 
CCOC(=O)N1C2CCC1CC(N1CCC3(CC1)CN(C(=O)O[C@@H]1CCOC1)c1ccc(F)cc13)C2 (stereo partly shown) [compound 344] | xx (activity was measured to be between 0.1 μM and 1.0 μM) |  | xxx (activity was measured to be less than 0.1 μM) |  | x (efficacy was calculated to be less than 65%) | xx (efficacy was calculated to be between 85% and 65%)
CC(C)OC(=O)N1C2CCC1CC(N1CCC3(CC1)CN(C(=O)C1CC1)c1ccc(F)cc13)C2 (stereo not shown) [compound 345] | xx (activity was measured to be between 0.1 μM and 1.0 μM) | < 65 | xxx (activity was measured to be less than 0.1 μM) | < 65 |  | 
CC#CCOC(=O)N1CC2(CCN(C3CCN(C(=O)OCC)CC3)CC2)c2cc(F)ccc21 [compound 346] | x (activity was measured to be greater than 1.0 μM) | < 65 | xxx (activity was measured to be less than 0.1 μM) | < 65 |  | 

— US7786141B2 (Vertex Pharmaceuticals Incorporated, priority 2004, dated 2010)
